Data as given in US4175125A, “Method for treating methicillin resistant staphylococcus aureus” (Eli Lilly and Company, priority 1978, dated 1979).
≈ marks a conversion by molar mass, not a printed value.

Assays:
[1] = test system: Staphylococcus aureus cultures; assay: Agar dilution susceptibility test, phenylthioacetyl cephalosporins vs methicillin resistant S. aureus (Example 9); type: cell-based; settings: for MIC: Staphylococcus aureus, read-out: MIC
Description: This example compares the antibiotic activities of three known compounds, methicillin, cephalothin, and cephaloridine, with three compounds from the above examples, in terms of minimum inhibitory concentration (MIC) values in microgram/milliliter units against various isolates of Staphylococcus aureus cultures. The culture numbers and the procedures used to obtain the reported data are disclosed by W. E. Wick and D. A. Preston in their article "Heterogeneous Methicillin-Resistant Staphylococcus Aureus" which appeared in Progress in Antimicrobial And Anticancer Chemotherapy, Proceedings of the 6th International Congress of Chemotherapy, Volume, 1, U. of Tokyo Press, Tokyo, (1970). In these agardilution susceptibility tests, the inocula were diluted to 10^3 bacteria per spot. Cultures 3055 (benzylpenicillin sensitive) and H232 (benzylpenicillin-resistant) are controls. The remaining cultures are methicillin-resistant, and, except for 3136, are clinical isolates. Culture 3136 is a 4th transfer laboratory selected mutant.

[2] = test system: Staphylococcus aureus cultures; assay: Broth dilution MIC in trypticase soy broth, low and high NaCl (Example 10); type: cell-based; settings: Staphylococcus aureus, TSB, read-out: MIC
Protocol: This example compares the antibiotic activities of methicillin, cephalothin and cephaloridine with the compounds of Examples 1, 2 and 3, in broth dilution tests. The MIC values, in μg/ml., are against the same Staphylococcus aureus cultures described in Example 9, except that in this example the cultures were grown in trypticase soy broth (TSB). Growing the cultures in two broth cultures, one having a low (0.5 percent) sodium chloride content and one having a high (5.0 percent) sodium chloride content is said to assist in identifying the methicillin-resistant cultures from those which are not methicillin-resistant. […] See Chabbert, Y. A., 1967 Postgrad. Med. J., 43 (suppl); 40-46. One expects that similar changes in MIC values for this type of culture to other β-lactam antibiotics, e.g., various penicillins and cephalosporins, to have similar implications. […] That is, methicillin-resistant S.aureus cultures are susceptible to the cephalosporin antibiotics used in this invention.

[3] = culture 3130, table part marked b
[4] = culture 3130, table part marked c
[5] = culture 3131, table part marked b
[6] = culture 3131, table part marked c
[7] = culture 3134, table part marked b
[8] = culture 3134, table part marked c
[9] = culture 3135, table part marked b
[10] = culture 3135, table part marked c
[11] = culture 3136, table part marked b
[12] = culture 3136, table part marked c
[13] = culture 3137, table part marked b
[14] = culture 3137, table part marked c
[15] = culture 3138, table part marked b
[16] = culture 3138, table part marked c
[17] = culture 3139, table part marked b
[18] = culture 3139, table part marked c
[19] = culture (Seattle) 966, table part marked b
[20] = culture (Seattle) 966, table part marked c
[21] = culture S61, table part marked b
[22] = culture S61, table part marked c

## CC(=O)OCC1=C(C(=O)O)N2C(=O)C(NC(=O)CSc3cc(Cl)cc(Cl)c3)C2SC1 (stereo not drawn) [Example 3, 7-(3,5-Dichlorophenylthioacetamido)-cephalosporanic acid]
[1]; culture 3055 (control, benzylpenicillin sensitive), table part marked b
  MIC: < 0.06 µg/mL
[1]; culture 3055 (control, benzylpenicillin sensitive), table part marked c
  MIC: < 0.06 µg/mL
[1]; [3]
  MIC: 0.5 µg/mL (≈ 1.02 µM)
[1]; [4]
  MIC: 1 µg/mL (≈ 2.04 µM)
[1]; [5]
  MIC: 0.5 µg/mL (≈ 1.02 µM)
[1]; [6]
  MIC: 2 µg/mL (≈ 4.07 µM)
[1]; culture 3132, table part marked b
  MIC: 0.25 µg/mL (≈ 0.509 µM)
[1]; culture 3132, table part marked c
  MIC: 0.5 µg/mL (≈ 1.02 µM)
[1]; culture 3133, table part marked b
  MIC: 1 µg/mL (≈ 2.04 µM)
[1]; culture 3133, table part marked c
  MIC: 1 µg/mL (≈ 2.04 µM)
[1]; [7]
  MIC: 0.5 µg/mL (≈ 1.02 µM)
[1]; [8]
  MIC: 1 µg/mL (≈ 2.04 µM)
[1]; [9]
  MIC: 0.5 µg/mL (≈ 1.02 µM)
[1]; [10]
  MIC: 1 µg/mL (≈ 2.04 µM)
[1]; [11]
  MIC: 0.25 µg/mL (≈ 0.509 µM)
[1]; [12]
  MIC: 2 µg/mL (≈ 4.07 µM)
[1]; [13]
  MIC: 2 µg/mL (≈ 4.07 µM)
[1]; [14]
  MIC: 4 µg/mL (≈ 8.14 µM)
[1]; [15]
  MIC: 2 µg/mL (≈ 4.07 µM)
[1]; [16]
  MIC: 1 µg/mL (≈ 2.04 µM)
[1]; [17]
  MIC: 0.5 µg/mL (≈ 1.02 µM)
[1]; [18]
  MIC: 1 µg/mL (≈ 2.04 µM)
[1]; [19]
  MIC: 0.25 µg/mL (≈ 0.509 µM)
[1]; [20]
  MIC: 0.5 µg/mL (≈ 1.02 µM)
[1]; culture H232 (control, benzylpenicillin-resistant), table part marked b
  MIC: < 0.06 µg/mL
[1]; culture H232 (control, benzylpenicillin-resistant), table part marked c
  MIC: < 0.06 µg/mL
[1]; culture Kavarmark 1138501, table part marked b
  MIC: 0.5 µg/mL (≈ 1.02 µM)
[1]; culture Kavarmark 1138501, table part marked c
  MIC: 2 µg/mL (≈ 4.07 µM)
[1]; [21]
  MIC: 0.5 µg/mL (≈ 1.02 µM)
[1]; [22]
  MIC: 2 µg/mL (≈ 4.07 µM)
[1]; various cultures of methicillin-resistant Staphylococcus aureus
  effectiveness in in vitro tests vs methicillin, cephalothin and cephaloridine: substantially more effective than methicillin, cephalothin, and cephaloridine
[2]; culture 3055 (control), table part marked b
  MIC: 0.06 µg/mL (≈ 0.122 µM)
[2]; culture 3055 (control), table part marked c
  MIC: 0.06 µg/mL (≈ 0.122 µM)
[2]; [3]
  MIC: < 0.5 µg/mL
[2]; [4]
  MIC: 2 µg/mL (≈ 4.07 µM)
[2]; [5]
  MIC: < 0.5 µg/mL
[2]; [6]
  MIC: 1 µg/mL (≈ 2.04 µM)
[2]; culture 3132 (first column so headed), table part marked b
  MIC: < 0.5 µg/mL
[2]; culture 3132 (first column so headed), table part marked c
  MIC: 1 µg/mL (≈ 2.04 µM)
[2]; culture 3132 (second column so headed), table part marked b
  MIC: < 0.5 µg/mL
[2]; culture 3132 (second column so headed), table part marked c
  MIC: 2 µg/mL (≈ 4.07 µM)
[2]; [7]
  MIC: 1 µg/mL (≈ 2.04 µM)
[2]; [8]
  MIC: 2 µg/mL (≈ 4.07 µM)
[2]; [9]
  MIC: < 0.5 µg/mL
[2]; [10]
  MIC: 2 µg/mL (≈ 4.07 µM)
[2]; [11]
  MIC: 0.5 µg/mL (≈ 1.02 µM)
[2]; [12]
  MIC: 2 µg/mL (≈ 4.07 µM)
[2]; [13]
  MIC: 2 µg/mL (≈ 4.07 µM)
[2]; [14]
  MIC: 4 µg/mL (≈ 8.14 µM)
[2]; [15]
  MIC: 1 µg/mL (≈ 2.04 µM)
[2]; [16]
  MIC: 2 µg/mL (≈ 4.07 µM)
[2]; [17]
  MIC: 2 µg/mL (≈ 4.07 µM)
[2]; [18]
  MIC: 2 µg/mL (≈ 4.07 µM)
[2]; [19]
  MIC: 1 µg/mL (≈ 2.04 µM)
[2]; [20]
  MIC: 8 µg/mL (≈ 16.3 µM)
[2]; culture H232 (control), table part marked b
  MIC: 0.12 µg/mL (≈ 0.244 µM)
[2]; culture H232 (control), table part marked c
  MIC: 0.12 µg/mL (≈ 0.244 µM)
[2]; culture Kavarnick 1138501, table part marked b
  MIC: 0.5 µg/mL (≈ 1.02 µM)
[2]; culture Kavarnick 1138501, table part marked c
  MIC: 1 µg/mL (≈ 2.04 µM)
[2]; [21]
  MIC: 0.5 µg/mL (≈ 1.02 µM)
[2]; [22]
  MIC: 1 µg/mL (≈ 2.04 µM)
[2]; culture S, table part marked b
  MIC: 0.5 µg/mL (≈ 1.02 µM)
[2]; culture S, table part marked c
  MIC: 2 µg/mL (≈ 4.07 µM)
